According to article PMC9090415, “Discovery of small molecule inhibitors of Plasmodium falciparum apicoplast DNA polymerase” (Journal of Enzyme Inhibition and Medicinal Chemistry, 2022):

Biological target: P. falciparum apicoplast DNA polymerase (Pf-apPOL) (Plasmodium falciparum, UniProt Q8ILY1)
Test: Fluorescence-based high-throughput DNA polymerase assay (molecular beacon), primary screen and dose-response;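 on % inhibition Apol 40': compound concentration given in µM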
Assay type: biochemical
Settings: for DNA Pol: 90 min, 10 µM
In short: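 Single-point screening used 10 µM compound with 20 nM polymerase, 20 nM hairpin substrate and 6 µM dNTPs for 90 min at 25 °C. Confirmatory titrations (2.5–80 µM) followed fluorescence at three times, and IC50 was derived from a fit including a cooperativity term n.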

Sequence of P. falciparum apicoplast DNA polymerase (Pf-apPOL) (Q8ILY1 entry or part of it): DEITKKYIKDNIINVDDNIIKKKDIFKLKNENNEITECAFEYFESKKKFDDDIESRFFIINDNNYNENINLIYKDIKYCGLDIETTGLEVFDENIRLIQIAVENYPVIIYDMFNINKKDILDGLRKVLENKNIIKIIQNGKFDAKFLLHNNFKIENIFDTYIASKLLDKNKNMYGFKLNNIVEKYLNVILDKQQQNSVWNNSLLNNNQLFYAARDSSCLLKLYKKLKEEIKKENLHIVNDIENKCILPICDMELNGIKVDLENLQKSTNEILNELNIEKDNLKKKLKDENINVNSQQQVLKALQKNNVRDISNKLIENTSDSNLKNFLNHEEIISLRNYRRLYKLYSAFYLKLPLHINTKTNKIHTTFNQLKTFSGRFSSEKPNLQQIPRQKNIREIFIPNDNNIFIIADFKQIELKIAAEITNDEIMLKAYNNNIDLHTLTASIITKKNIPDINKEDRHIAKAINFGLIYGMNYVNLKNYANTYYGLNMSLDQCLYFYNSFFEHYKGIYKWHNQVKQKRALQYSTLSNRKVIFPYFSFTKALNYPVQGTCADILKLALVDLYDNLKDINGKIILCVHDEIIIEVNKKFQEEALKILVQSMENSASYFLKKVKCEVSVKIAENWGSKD

Structure (SMILES): COc1cccc(Oc2c(C(F)(F)F)oc3cc(OC(=O)N(C)C)ccc3c2=O)c1 [Molecule 52, COc1cccc(c1)Oc1c(=O)c2ccc(cc2oc1C(F)(F)F)OC(=O)N(C)C]
- DNA Pol ('DNA Pol' of the 186 hits list (primary screen value)): 61
- DNA Pol (DNA Pol (primary screen value)): 61
- % inhibition Apo pol 10' (DRC-1, concentration 2.5): 6.553%
- % inhibition Apo pol 10' (DRC-1, concentration 5): 12.9509%
- % inhibition Apo pol 10' (DRC-1, concentration 10): 26.9326%
- % inhibition Apo pol 10' (DRC-1, concentration 20): 35.5271%
- % inhibition Apo pol 10' (DRC-1, concentration 40): 51.7019%
- % inhibition Apo pol 10' (DRC-1, concentration 80): 57.2765%
- % inhibition Apol 90' (DRC-1, concentration 2.5): 11.9844%
- % inhibition Apol 90' (DRC-1, concentration 5): 19.0717%
- % inhibition Apol 90' (DRC-1, concentration 10): 34.8904%
- % inhibition Apol 90' (DRC-1, concentration 20): 41.7615%
- % inhibition Apol 90' (DRC-1, concentration 40): 58.6612%
- % inhibition Apol 90' (DRC-1, concentration 80): 63.3235%
- % inhibition apPOL 180' (DRC-1, concentration 2.5): 22.4742%
- % inhibition apPOL 180' (DRC-1, concentration 5): 28.9407%
- % inhibition apPOL 180' (DRC-1, concentration 10): 43.333%
- % inhibition apPOL 180' (DRC-1, concentration 20): 44.974%
- % inhibition apPOL 180' (DRC-1, concentration 40): 65.9617%
- % inhibition apPOL 180' (DRC-1, concentration 80): 64.6101%
- % inhibition Apo pol 5' (DRC-2, concentration 2.5): 15%
- % inhibition Apo pol 5' (DRC-2, concentration 5): 18%
- % inhibition Apo pol 5' (DRC-2, concentration 10): 27%
- % inhibition Apo pol 5' (DRC-2, concentration 20): 32%
- % inhibition Apo pol 5' (DRC-2, concentration 40): 40%
- % inhibition Apo pol 5' (DRC-2, concentration 80): 42%
- % inhibition Apol 40' (DRC-2, concentration 2.5): 14%
- % inhibition Apol 40' (DRC-2, concentration 5): 14%
- % inhibition Apol 40' (DRC-2, concentration 10): 33%
- % inhibition Apol 40' (DRC-2, concentration 20): 41%
- % inhibition Apol 40' (DRC-2, concentration 40): 50%
- % inhibition Apol 40' (DRC-2, concentration 80): 56%
- % inhibition ApPOL 90' (DRC-2, concentration 2.5): 14%
- % inhibition ApPOL 90' (DRC-2, concentration 5): 8%
- % inhibition ApPOL 90' (DRC-2, concentration 10): 33%
- % inhibition ApPOL 90' (DRC-2, concentration 20): 41%
- % inhibition ApPOL 90' (DRC-2, concentration 40): 51%
- % inhibition ApPOL 90' (DRC-2, concentration 80): 58%
- % inhibition apPOL 180' (DRC-2, concentration 2.5): 6.57%
- % inhibition apPOL 180' (DRC-2, concentration 5): -58%
- % inhibition apPOL 180' (DRC-2, concentration 10): 24%
- % inhibition apPOL 180' (DRC-2, concentration 20): 33%
- % inhibition apPOL 180' (DRC-2, concentration 40): 45%
- % inhibition apPOL 180' (DRC-2, concentration 80): 54%

Structure (SMILES): N#CC(=NNc1cc(C(F)(F)F)cc(C(F)(F)F)c1)C(=O)c1ccco1 [KU0264276]
- DNA Pol ("DNA Pol" of the 186 hits list (screen value)): 81
- % inhibition Apo pol 10' (DRC-1, concentration 2.5): 7.413%
- % inhibition Apo pol 10' (DRC-1, concentration 5): 17.153%
- % inhibition Apo pol 10' (DRC-1, concentration 10): 33.1185%
- % inhibition Apo pol 10' (DRC-1, concentration 20): 55.9301%
- % inhibition Apo pol 10' (DRC-1, concentration 40): 90.9847%
- % inhibition Apo pol 10' (DRC-1, concentration 80): 81.2188%
- % inhibition Apol 90' (DRC-1, concentration 2.5): 13.8039%
- % inhibition Apol 90' (DRC-1, concentration 5): 15.4083%
- % inhibition Apol 90' (DRC-1, concentration 10): 41.225%
- % inhibition Apol 90' (DRC-1, concentration 20): 52.5694%
- % inhibition Apol 90' (DRC-1, concentration 40): 86.2656%
- % inhibition Apol 90' (DRC-1, concentration 80): 77.3906%
- % inhibition apPOL 180' (DRC-1, concentration 2.5): 13.2581%
- % inhibition apPOL 180' (DRC-1, concentration 5): 8.8259%
- % inhibition apPOL 180' (DRC-1, concentration 10): 37.6364%
- % inhibition apPOL 180' (DRC-1, concentration 20): 41.4937%
- % inhibition apPOL 180' (DRC-1, concentration 40): 81.9249%
- % inhibition apPOL 180' (DRC-1, concentration 80): 71.4519%
- % inhibition Apo pol 5' (DRC-2, concentration 2.5): 6%
- % inhibition Apo pol 5' (DRC-2, concentration 5): 12%
- % inhibition Apo pol 5' (DRC-2, concentration 10): 27%
- % inhibition Apo pol 5' (DRC-2, concentration 20): 47%
- % inhibition Apo pol 5' (DRC-2, concentration 40): 57%
- % inhibition Apo pol 5' (DRC-2, concentration 80): 58%
- % inhibition Apol 40' (DRC-2, concentration 2.5): 8%
- % inhibition Apol 40' (DRC-2, concentration 5): 15%
- % inhibition Apol 40' (DRC-2, concentration 10): 34%
- % inhibition Apol 40' (DRC-2, concentration 20): 59%
- % inhibition Apol 40' (DRC-2, concentration 40): 69%
- % inhibition Apol 40' (DRC-2, concentration 80): 72%
- % inhibition ApPOL 90' (DRC-2, concentration 2.5): 4.34%
- % inhibition ApPOL 90' (DRC-2, concentration 5): 14%
- % inhibition ApPOL 90' (DRC-2, concentration 10): 32%
- % inhibition ApPOL 90' (DRC-2, concentration 20): 59%
- % inhibition ApPOL 90' (DRC-2, concentration 40): 71%
- % inhibition ApPOL 90' (DRC-2, concentration 80): 74%
- % inhibition apPOL 180' (DRC-2, concentration 2.5): -0.774%
- % inhibition apPOL 180' (DRC-2, concentration 5): 4.73%
- % inhibition apPOL 180' (DRC-2, concentration 10): 22%
- % inhibition apPOL 180' (DRC-2, concentration 20): 52%
- % inhibition apPOL 180' (DRC-2, concentration 40): 67%
- % inhibition apPOL 180' (DRC-2, concentration 80): 74%
- DNA Pol (primary screen value, DNA Pol): 81
